This is an account of results in ChEMBL document CHEMBL1201862, “PubChem BioAssay data set” (2004).

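These data come from cells grown in 96-well plates and exposed to compound for 48 hours at five concentrations. GI50 = concentration required for 50% inhibition of growth.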 Calls of active or inactive are those of the source. Rule as the data show it: active = GI50 up to about 1.1 µM and inactive = higher.

Some test systems named below: SR; NCI-H460; COLO 205; DU-145; HCT-15; HCC 2998; TK-10; MDA-MB-435; BT-549; OVCAR-8; HCT-116; SW-620; UO-31; LOX IMVI; SF-268; OVCAR-3; MDA-MB-231; OVCAR-5; HT-29; OVCAR-4.
Holding throughout (test): NCI anticancer screen, dose series, 48 h

For `C=C1C2C[C@@H]3O[C@H]4C[C@H]5O[C@@]6(C[C@@H]7O[C@]8(C[C@H](C)[C@@H]9O[C@@H]%10CC(C=O)O[C@@H]%10C[C@@H]9O8)C[C@H](C)[C@@H]7O6)C[C@H]5O[C@H]4[C@H](C)[C@H]3OC(=O)C[C@H]3CC[C@@H]4OC5[C@H]6O[C@]7(CC[C@H]8CC(=C)[C@H](CC[C@@H](C[C@H]1C)O2)O8)CC6O[C@@H]5[C@@H](O7)[C@H]4O3` (some centres undefined), the GI50 was < 0.0001 µM (active) with SR; < 0.0001 µM (active) in the experiment on NCI-H460; < 0.0001 µM (active) with COLO 205; < 0.0001 µM (active) in the experiment with DU-145; under 0.0001 µM with HCT-15; < 0.0001 µM (active) in the experiment with HCC 2998. For the same compound, the GI50 in the experiment on TK-10 was 0.00771 µM (active); in the experiment with MDA-MB-435, < 0.0001 µM (active); with BT-549, < 0.0001 µM (active); in the experiment on OVCAR-8 it was < 0.0001 µM (active); in the experiment with HCT-116, < 0.0001 µM (active); in the experiment with SW-620, < 0.0001 µM (active). The GI50 was < 0.0001 µM (active) in the experiment with UO-31; < 0.0001 µM (active) in the experiment with LOX IMVI; < 0.0001 µM (active) in the experiment on SF-268; < 0.0001 µM (active) in the experiment with OVCAR-3; 0.000229 µM (active) in the experiment on MDA-MB-231.
For `CC(=O)OC(C(=O)NNC(=O)OC(C)(C)C)c1ccccc1` (centres undefined), the GI50 with SR is > 100 µM (inactive); with NCI-H460, > 100 µM (inactive); with COLO 205 it was > 100 µM (inactive); with DU-145 it was > 100 µM (inactive); in the experiment on OVCAR-5, > 100 µM (inactive); in the experiment with HCT-15 it was over 100 µM. Also, the GI50 in the experiment on HCC 2998, in the experiment on TK-10, in the experiment on MDA-MB-435, with BT-549, in the experiment on OVCAR-8 and in the experiment on SW-620 was > 100 µM (inactive) throughout. Besides, the GI50 with UO-31, in the experiment with SF-268, in the experiment on OVCAR-3, in the experiment on HT-29 and in the experiment on MDA-MB-231 was > 100 µM (inactive) in each case.
In the case of `O=C(O)c1ccc(Nc2nc3cc(C(F)(F)F)ccc3nc2-c2ccccc2)cc1`, the GI50 was 6.89 µM (inactive) in the experiment with SR; 19.1 µM (inactive) in the experiment on NCI-H460; 17.5 µM (inactive) with COLO 205; 25.8 µM (inactive) in the experiment with DU-145; 45.6 µM (inactive) in the experiment on OVCAR-5; 12.9 µM with HCT-15. Besides, the GI50 with HCC 2998 is 16.7 µM (inactive); with TK-10, 15.2 µM (inactive); in the experiment with MDA-MB-435 it was 31.6 µM (inactive); in the experiment on BT-549, 62.5 µM (inactive); with OVCAR-8, 27.9 µM (inactive); in the experiment with HCT-116, 22.8 µM (inactive). The GI50 in the experiment on SW-620 is 17.2 µM (inactive); in the experiment with UO-31, 17.1 µM (inactive); in the experiment on LOX IMVI, 15.2 µM (inactive); in the experiment on SF-268 it was 48.8 µM (inactive); in the experiment on OVCAR-3, 15.2 µM (inactive); with HT-29, 14.1 µM (inactive). Besides, in the experiment with MDA-MB-231, the GI50 was 32.1 µM (inactive).
As for `Cc1nc2c(Cl)cc(Cl)cc2c(Cl)c1CCCl`, the GI50 in the experiment on SR was 79.1 µM (inactive); in the experiment on NCI-H460 it was > 100 µM (inactive); in the experiment with COLO 205, > 100 µM (inactive); in the experiment on DU-145, > 100 µM (inactive); in the experiment on OVCAR-5 it was 78.3 µM (inactive); with HCT-15 it was 60.5 µM. For the same compound, the GI50 was > 100 µM (inactive) in the experiment on HCC 2998; 32.4 µM (inactive) with TK-10; 74.6 µM (inactive) in the experiment with MDA-MB-435; 51.1 µM (inactive) with BT-549; > 100 µM (inactive) in the experiment on OVCAR-8; 76 µM (inactive) with HCT-116. The GI50 in the experiment with SW-620 is > 100 µM (inactive); with UO-31 it was 30.1 µM (inactive); in the experiment with LOX IMVI, > 100 µM (inactive); in the experiment with SF-268, 75.2 µM (inactive); with OVCAR-3 it was > 100 µM (inactive); in the experiment with HT-29, 78.7 µM (inactive). For the same compound, the GI50 in the experiment on MDA-MB-231 is 69.5 µM (inactive).
In the case of `O=c1c2cc(-c3ccccc3)cnc2sn1-c1ccc([N+](=O)[O-])cc1`, the GI50 in the experiment on OVCAR-4 is 39 µM (inactive); in the experiment on SR, > 100 µM (inactive); in the experiment on NCI-H460 it was 37.3 µM (inactive); in the experiment on COLO 205, > 100 µM (inactive); with DU-145, 61.4 µM (inactive); in the experiment on OVCAR-5, > 100 µM (inactive). For the same compound, the GI50 in the experiment on HCT-15 is 55.2 µM; with HCC 2998, > 100 µM (inactive); in the experiment with MDA-MB-435, 42.3 µM (inactive); in the experiment with BT-549, 52.8 µM (inactive); with OVCAR-8 it was 33.2 µM (inactive); in the experiment with HCT-116 it was 21.3 µM (inactive). In addition, the GI50 is 94.8 µM (inactive) in the experiment on SW-620; 40 µM (inactive) in the experiment with UO-31; 48.2 µM (inactive) in the experiment with SF-268; 16.9 µM (inactive) with OVCAR-3; 68.2 µM (inactive) with HT-29; 41.3 µM (inactive) in the experiment with MDA-MB-231.
In the case of `O=C(/N=C1/NCC(CN2CCN(c3ccccc3)CC2)O1)Nc1ccccc1` (centres undefined), the GI50 in the experiment on OVCAR-4, with SR, in the experiment with NCI-H460, with COLO 205, in the experiment on DU-145 and with OVCAR-5 was > 100 µM (inactive) in each case. Besides, the GI50 with HCT-15 was over 100 µM; in the experiment with HCC 2998, > 100 µM (inactive); with TK-10, > 100 µM (inactive); with MDA-MB-435, > 100 µM (inactive); with BT-549 it was > 100 µM (inactive); with HCT-116, > 100 µM (inactive). For the same compound, the GI50 in the experiment on SW-620 was > 100 µM (inactive); with UO-31, > 100 µM (inactive); in the experiment with LOX IMVI it was > 100 µM (inactive); in the experiment on SF-268, > 100 µM (inactive); in the experiment on HT-29, 63.8 µM (inactive); with MDA-MB-231, > 100 µM (inactive).
In the case of `COc1ccc2c3c(c(=O)n(C)c2c1OC)C=CC(C)(C)O3`, the GI50 was 19.1 µM (inactive) in the experiment with OVCAR-4; 3.46 µM (inactive) in the experiment on SR; 19.7 µM (inactive) in the experiment on COLO 205; 43.7 µM (inactive) in the experiment on DU-145; 82 µM (inactive) in the experiment on OVCAR-5; 13.4 µM in the experiment with HCT-15. Also, the GI50 with HCC 2998 is 29.5 µM (inactive); in the experiment with TK-10 it was 28.8 µM (inactive); with MDA-MB-435 it was 38.3 µM (inactive); in the experiment with BT-549, 22.1 µM (inactive); in the experiment on OVCAR-8 it was 23.9 µM (inactive); in the experiment on HCT-116 it was 29.9 µM (inactive). In addition, the GI50 is 28.4 µM (inactive) with SW-620; 20.9 µM (inactive) with UO-31; 33.7 µM (inactive) with LOX IMVI; 26.8 µM (inactive) in the experiment with SF-268; 48 µM (inactive) in the experiment with OVCAR-3; 24 µM (inactive) with HT-29. Besides, in the experiment on MDA-MB-231, the GI50 was 22 µM (inactive).
In the case of `CC[C@@H](O)C[C@H]1CCC[C@@]2(C[C@@H]3OC(=O)/C=C/[C@@](C)(O)[C@@H](O)[C@H](C)[C@@H](O)[C@H](OC4CCC(N(C)C)C(C)O4)[C@@H](O)[C@](C)(O)CCCCC/C=C/[C@@H]4CC(C)(C)O[C@@]4(O)C[C@H](O2)[C@H]3C)O1` (some centres undefined), the GI50 in the experiment on OVCAR-4 is 5.2 µM (inactive); in the experiment on SR, 1.06 µM (active); in the experiment on NCI-H460, 4.23 µM (inactive); in the experiment with COLO 205 it was < 0.01 µM (active); in the experiment on DU-145, 11.3 µM (inactive); in the experiment with OVCAR-5, 14.8 µM (inactive). For the same compound, the GI50 is 11.5 µM in the experiment on HCT-15; 2.4 µM (inactive) in the experiment on HCC 2998; 0.927 µM (active) with MDA-MB-435; 12.6 µM (inactive) in the experiment on BT-549; < 0.01 µM (active) in the experiment with OVCAR-8; 1.54 µM (inactive) in the experiment on HCT-116. The GI50 with SW-620 was 16.6 µM (inactive); in the experiment with UO-31, < 0.0388 µM (active); with LOX IMVI, 1.82 µM (inactive); with SF-268, 15.7 µM (inactive); in the experiment on OVCAR-3 it was 12.9 µM (inactive); with HT-29, 3.49 µM (inactive). Further, the GI50 in the experiment with MDA-MB-231 was 17.5 µM (inactive).
Turning to `OC1CCC(C2C3CCCCC3C3CCCCC3C2C2CCC(O)CC2)CC1` (centres undefined), the GI50 in the experiment with OVCAR-4 is 4.04 µM (inactive); in the experiment with SR it was 4.16 µM (inactive); in the experiment on NCI-H460, 2.96 µM (inactive); in the experiment with COLO 205, 2.22 µM (inactive); with DU-145 it was 5.37 µM (inactive); in the experiment on OVCAR-5, 7.59 µM (inactive). Further, the GI50 in the experiment with HCT-15 is 2.49 µM; in the experiment with TK-10 it was 5.18 µM (inactive); in the experiment on MDA-MB-435, 4.19 µM (inactive); in the experiment with BT-549 it was 3.89 µM (inactive); in the experiment on OVCAR-8 it was 3.72 µM (inactive); with HCT-116, 4.52 µM (inactive). The GI50 with SW-620 is 3.99 µM (inactive); in the experiment on UO-31, 4.81 µM (inactive); in the experiment on LOX IMVI, 2.31 µM (inactive); in the experiment on SF-268, 2.99 µM (inactive); in the experiment with OVCAR-3, 4.67 µM (inactive); with HT-29, 2.05 µM (inactive). Further, the GI50 in the experiment with MDA-MB-231 is 3.27 µM (inactive).
For `c1ccc2sc(SSSc3nc4ccccc4s3)nc2c1`, the GI50 in the experiment on OVCAR-4 was > 100 µM (inactive); with SR, 53.8 µM (inactive); in the experiment on NCI-H460, 44.7 µM (inactive); with COLO 205 it was > 100 µM (inactive); in the experiment on DU-145, > 100 µM (inactive); with OVCAR-5, > 100 µM (inactive). In addition, the GI50 was 27.7 µM in the experiment with HCT-15; > 100 µM (inactive) in the experiment with HCC 2998; > 100 µM (inactive) with TK-10; > 100 µM (inactive) in the experiment with MDA-MB-435; > 100 µM (inactive) with BT-549; 55.6 µM (inactive) in the experiment on OVCAR-8. For the same compound, the GI50 in the experiment with HCT-116 was > 100 µM (inactive); with SW-620, > 100 µM (inactive); in the experiment on UO-31, > 100 µM (inactive); with LOX IMVI, 19.1 µM (inactive); in the experiment with SF-268 it was > 100 µM (inactive); in the experiment with HT-29, 35.7 µM (inactive). In addition, in the experiment with MDA-MB-231, the GI50 was > 100 µM (inactive).
